Experiment: Solubility of CoQ10 in fish oil and fish oil concentrates under different conditions and time of storage
Format: physicochemical
Details: for Solubility of CoQ10 in 1812TG, confirmed solubility / Solubility of CoQ10 in 4020EE, confirmed solubility: heating prior storage
Text: CoQ10 was solubilized in 0355 EE (fish oil concentrate in ethylester form containing 3% EPA and 55% DHA), 4020EE (fish oil concentrate in ethylester form containing 40% EPA and 20% DHA) and 1812TG (purified fish oil containing 18% EPA and 12% of DHA) and the final solubility was examined under different conditions and time of storage. All of these starting oils were manufactured by Ocean Nutrition Canada, Mulgrave, NS).

COC1=C(OC)C(=O)C(C/C=C(\C)CC/C=C(\C)CC/C=C(\C)CC/C=C(\C)CC/C=C(\C)CC/C=C(\C)CC/C=C(\C)CC/C=C(\C)CC/C=C(\C)CCC=C(C)C)=C(C)C1=O [CoQ10ox, 2,3-dimethyoxy-5-methyl-6-decaprenyl-1,4-benzoquinone]
Solubility of CoQ10 in 0355EE, confirmed solubility (0355EE (ethylester concentrate, 3% EPA, 55% DHA), solubility at RT, no heating prior storage): 6.6 %, w/w
Solubility of CoQ10 in 0355EE, confirmed solubility (0355EE, solubility at 50° C.): 27%, w/w
Solubility of CoQ10 in 0355EE, confirmed solubility (0355EE, storage at 4° C. (line after solubility at 50° C.)): 3.2%, w/w
Solubility of CoQ10 in 0355EE, confirmed solubility (0355EE, storage at 4° C. for 24 h, no heating prior storage): 2.5 %, w/w
Solubility of CoQ10 in 1812TG, confirmed solubility (1812TG (purified fish oil, 18% EPA, 12% DHA), solubility at 50° C.): 11 %, w/w
Solubility of CoQ10 in 1812TG, confirmed solubility (1812TG, storage at 4° C.): <2.9 %, w/w
Solubility of CoQ10 in 4020EE, confirmed solubility (4020EE (ethylester concentrate, 40% EPA, 20% DHA), solubility at 50° C.): 9 %, w/w
Solubility of CoQ10 in 4020EE, confirmed solubility (4020EE, storage at 4° C.): 5.7 %, w/w

Source: patent US20080139649A1, “Fatty Acid-Benzenediol Derivatives and Methods of Making and Using Thereof” (priority 2005, published 2008)
